Measured values taken from patent US8158636B2, “Compounds and methods for kinase modulation, and indications therefor” (Plexxikon Inc., priority 2008, dated 2012).

How the values were obtained:
Assay type in all cases: biochemical
C-Raf = C-Raf (Homo sapiens, UniProt P04049); assay: Kinase activity assay, C-Raf; conditions: Table 1d; read-out: activity toward kinase C-Raf, IC50
Source text: (§1) Assays for the activity of kinases, including, but not limited to, Fms, Kit, B-Raf, B-Raf V600E, c-Raf-1, and TrkA are known in the art, for example as described in US Patent Publication Number US20070032519 and U.S. patent application Ser. No. 11/473,347 (see also, PCT publication WO2007002433), the disclosures of which are hereby incorporated by reference with respect to such assays.

Fms = Fms (Homo sapiens, UniProt P07333); assay: Kinase activity assay, Fms; conditions: Table 1h; read-out: activity toward kinase Fms, IC50
Source text: as §1

B-Raf V600E = B-Raf V600E (Homo sapiens, UniProt P15056, V600E); assay: Kinase activity assay, B-Raf V600E; conditions: Table 1c; read-out: activity toward kinase B-Raf V600E, IC50
Source text: as §1

Kdr = Kdr (Homo sapiens, UniProt P35968); assay: Kinase activity assay, Kdr; conditions: Table 1i; read-out: activity toward kinase Kdr, IC50
Source text: as §1

B-Raf = B-Raf (Homo sapiens, UniProt P15056); assay: Kinase activity assay, B-Raf; conditions: Table 1b; read-out: activity toward kinase B-Raf, IC50
Source text: as §1

Kit = Kit (Homo sapiens, UniProt P10721); assay: Kinase activity assay, Kit; conditions: Table 1j; read-out: activity toward kinase Kit, IC50
Source text: as §1

Src = Src (Homo sapiens, UniProt P12931); assay: Kinase activity assay, Src; conditions: Table 1k; read-out: activity toward kinase Src, IC50
Source text: as §1

TrkA = TrkA (Homo sapiens, UniProt P04629); assay: Kinase activity assay, TrkA; conditions: Table 1m; read-out: activity toward kinase TrkA, IC50
Source text: as §1

Btk = Btk (Homo sapiens, UniProt Q06187); assay: Kinase activity assay, Btk; conditions: Table 1e; read-out: activity toward kinase Btk, IC50
Source text: as §1

A-Raf = target: T1, A-Raf (Homo sapiens, UniProt P10398); assay: Kinase activity assay, A-Raf; conditions: Table 1a; read-out: activity toward kinase A-Raf, IC50
T1 sequence (P10398 1-606): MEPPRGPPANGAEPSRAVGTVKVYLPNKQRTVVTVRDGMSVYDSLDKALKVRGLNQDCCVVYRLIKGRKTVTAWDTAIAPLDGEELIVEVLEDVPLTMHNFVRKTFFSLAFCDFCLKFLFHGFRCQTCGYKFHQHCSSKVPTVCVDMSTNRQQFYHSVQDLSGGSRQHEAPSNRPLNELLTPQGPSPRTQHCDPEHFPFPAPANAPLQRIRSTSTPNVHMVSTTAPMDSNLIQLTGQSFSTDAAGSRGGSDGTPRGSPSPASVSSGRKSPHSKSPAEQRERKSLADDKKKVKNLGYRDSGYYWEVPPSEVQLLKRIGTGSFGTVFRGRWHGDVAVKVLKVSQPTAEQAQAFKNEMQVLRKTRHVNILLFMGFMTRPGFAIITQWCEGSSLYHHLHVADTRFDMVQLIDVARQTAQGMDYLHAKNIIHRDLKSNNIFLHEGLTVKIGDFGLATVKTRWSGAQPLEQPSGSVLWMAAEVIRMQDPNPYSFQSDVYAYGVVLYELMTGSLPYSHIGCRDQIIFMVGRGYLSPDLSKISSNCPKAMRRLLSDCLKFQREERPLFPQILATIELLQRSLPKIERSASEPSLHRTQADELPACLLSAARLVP
Source text: as §1

Flt-3 = target: T2, Flt-3 (Homo sapiens, UniProt P36888); assay: Kinase activity assay, Flt-3; conditions: Table 1g; read-out: activity toward kinase Flt-3, IC50
T2 sequence (P36888 27-993): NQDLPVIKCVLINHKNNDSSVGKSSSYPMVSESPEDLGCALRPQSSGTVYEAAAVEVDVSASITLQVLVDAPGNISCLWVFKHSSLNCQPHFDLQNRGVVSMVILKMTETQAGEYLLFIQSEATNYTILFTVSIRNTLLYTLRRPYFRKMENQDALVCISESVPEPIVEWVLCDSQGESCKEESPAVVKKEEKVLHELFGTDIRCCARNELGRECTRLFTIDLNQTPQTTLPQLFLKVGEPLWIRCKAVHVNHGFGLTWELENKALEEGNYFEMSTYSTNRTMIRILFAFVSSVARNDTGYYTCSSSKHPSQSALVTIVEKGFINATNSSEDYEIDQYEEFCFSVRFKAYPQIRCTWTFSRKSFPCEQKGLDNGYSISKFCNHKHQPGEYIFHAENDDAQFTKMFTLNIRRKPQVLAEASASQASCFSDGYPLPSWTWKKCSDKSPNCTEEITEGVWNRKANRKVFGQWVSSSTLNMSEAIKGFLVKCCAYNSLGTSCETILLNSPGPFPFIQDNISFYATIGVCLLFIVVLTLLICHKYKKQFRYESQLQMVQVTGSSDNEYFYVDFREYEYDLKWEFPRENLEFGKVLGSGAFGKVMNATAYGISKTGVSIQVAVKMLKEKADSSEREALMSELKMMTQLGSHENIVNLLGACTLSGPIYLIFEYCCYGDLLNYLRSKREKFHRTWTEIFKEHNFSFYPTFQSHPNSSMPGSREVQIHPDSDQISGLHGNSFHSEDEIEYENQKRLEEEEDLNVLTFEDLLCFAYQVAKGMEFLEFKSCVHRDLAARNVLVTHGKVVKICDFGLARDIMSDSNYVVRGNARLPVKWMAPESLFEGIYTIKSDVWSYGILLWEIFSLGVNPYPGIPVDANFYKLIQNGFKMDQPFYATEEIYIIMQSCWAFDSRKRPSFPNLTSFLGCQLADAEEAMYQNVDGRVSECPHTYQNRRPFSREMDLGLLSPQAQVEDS
Source text: as §1

Measured: IC50

Btk, sequence (Q06187 whole entry): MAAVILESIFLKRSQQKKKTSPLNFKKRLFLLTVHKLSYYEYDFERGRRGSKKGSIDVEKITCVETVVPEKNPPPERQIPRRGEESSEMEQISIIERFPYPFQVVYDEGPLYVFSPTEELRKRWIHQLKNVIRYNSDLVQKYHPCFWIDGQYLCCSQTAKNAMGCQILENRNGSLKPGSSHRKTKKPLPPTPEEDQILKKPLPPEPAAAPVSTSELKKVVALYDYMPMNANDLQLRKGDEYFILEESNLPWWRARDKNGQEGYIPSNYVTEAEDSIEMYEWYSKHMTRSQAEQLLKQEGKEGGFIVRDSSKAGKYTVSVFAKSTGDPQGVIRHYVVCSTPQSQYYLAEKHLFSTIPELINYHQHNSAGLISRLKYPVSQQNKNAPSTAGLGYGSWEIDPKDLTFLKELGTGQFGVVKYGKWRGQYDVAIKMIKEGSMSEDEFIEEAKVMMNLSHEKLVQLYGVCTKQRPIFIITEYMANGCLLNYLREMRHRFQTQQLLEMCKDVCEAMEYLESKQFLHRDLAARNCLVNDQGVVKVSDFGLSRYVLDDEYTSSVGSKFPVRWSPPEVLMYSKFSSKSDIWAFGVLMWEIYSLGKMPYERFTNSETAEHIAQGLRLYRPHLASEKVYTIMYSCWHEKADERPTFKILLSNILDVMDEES
Kit, sequence (P10721 26-976): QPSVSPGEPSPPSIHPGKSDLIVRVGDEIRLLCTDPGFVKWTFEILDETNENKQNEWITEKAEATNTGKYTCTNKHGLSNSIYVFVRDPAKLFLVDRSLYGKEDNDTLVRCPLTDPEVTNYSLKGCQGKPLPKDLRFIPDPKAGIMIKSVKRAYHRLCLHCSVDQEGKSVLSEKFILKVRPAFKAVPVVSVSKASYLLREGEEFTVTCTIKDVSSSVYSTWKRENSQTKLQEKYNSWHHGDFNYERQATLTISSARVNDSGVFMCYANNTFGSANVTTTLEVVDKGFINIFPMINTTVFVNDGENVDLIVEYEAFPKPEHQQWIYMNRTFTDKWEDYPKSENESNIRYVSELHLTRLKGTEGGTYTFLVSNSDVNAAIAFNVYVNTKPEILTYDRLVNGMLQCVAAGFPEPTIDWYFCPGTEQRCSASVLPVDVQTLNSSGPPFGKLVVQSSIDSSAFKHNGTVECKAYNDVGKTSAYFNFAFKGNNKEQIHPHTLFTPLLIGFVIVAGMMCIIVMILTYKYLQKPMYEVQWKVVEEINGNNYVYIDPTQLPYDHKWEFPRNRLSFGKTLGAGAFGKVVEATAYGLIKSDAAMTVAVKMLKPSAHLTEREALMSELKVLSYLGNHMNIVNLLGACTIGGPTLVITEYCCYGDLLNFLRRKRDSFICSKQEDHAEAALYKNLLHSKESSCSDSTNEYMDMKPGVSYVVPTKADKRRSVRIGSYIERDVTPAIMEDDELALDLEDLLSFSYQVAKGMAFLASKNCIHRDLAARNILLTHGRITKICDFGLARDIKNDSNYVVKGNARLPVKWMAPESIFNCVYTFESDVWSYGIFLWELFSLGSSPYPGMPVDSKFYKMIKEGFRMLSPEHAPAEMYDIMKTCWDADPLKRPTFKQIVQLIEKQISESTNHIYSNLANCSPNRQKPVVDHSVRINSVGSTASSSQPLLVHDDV
Fms, sequence (P07333 20-972): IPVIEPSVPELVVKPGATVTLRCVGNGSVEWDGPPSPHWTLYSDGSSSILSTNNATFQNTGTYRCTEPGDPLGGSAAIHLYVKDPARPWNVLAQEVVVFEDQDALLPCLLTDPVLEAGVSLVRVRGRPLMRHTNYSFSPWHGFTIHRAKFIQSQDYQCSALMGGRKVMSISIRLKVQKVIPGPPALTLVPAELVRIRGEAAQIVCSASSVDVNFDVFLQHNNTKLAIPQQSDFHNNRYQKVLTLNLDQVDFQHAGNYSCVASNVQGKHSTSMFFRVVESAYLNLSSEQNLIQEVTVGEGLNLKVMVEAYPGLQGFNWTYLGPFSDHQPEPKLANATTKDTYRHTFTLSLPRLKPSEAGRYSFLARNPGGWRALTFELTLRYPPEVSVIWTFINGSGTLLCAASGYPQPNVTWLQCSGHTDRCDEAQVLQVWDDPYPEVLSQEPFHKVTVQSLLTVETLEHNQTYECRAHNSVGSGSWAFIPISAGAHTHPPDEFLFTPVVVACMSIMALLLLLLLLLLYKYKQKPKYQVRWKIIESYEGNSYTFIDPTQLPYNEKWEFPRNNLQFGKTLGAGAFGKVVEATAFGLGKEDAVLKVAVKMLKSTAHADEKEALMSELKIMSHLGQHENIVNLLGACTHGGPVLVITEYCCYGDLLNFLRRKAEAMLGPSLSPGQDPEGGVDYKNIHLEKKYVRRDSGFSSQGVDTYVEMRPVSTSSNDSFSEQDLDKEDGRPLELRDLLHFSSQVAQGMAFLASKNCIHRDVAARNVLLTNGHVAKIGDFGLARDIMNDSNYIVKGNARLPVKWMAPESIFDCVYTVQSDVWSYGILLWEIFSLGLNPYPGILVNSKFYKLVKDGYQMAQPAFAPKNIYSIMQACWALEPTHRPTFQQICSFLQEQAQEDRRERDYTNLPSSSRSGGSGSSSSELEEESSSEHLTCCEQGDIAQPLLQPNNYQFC
TrkA, sequence (P04629 33-796): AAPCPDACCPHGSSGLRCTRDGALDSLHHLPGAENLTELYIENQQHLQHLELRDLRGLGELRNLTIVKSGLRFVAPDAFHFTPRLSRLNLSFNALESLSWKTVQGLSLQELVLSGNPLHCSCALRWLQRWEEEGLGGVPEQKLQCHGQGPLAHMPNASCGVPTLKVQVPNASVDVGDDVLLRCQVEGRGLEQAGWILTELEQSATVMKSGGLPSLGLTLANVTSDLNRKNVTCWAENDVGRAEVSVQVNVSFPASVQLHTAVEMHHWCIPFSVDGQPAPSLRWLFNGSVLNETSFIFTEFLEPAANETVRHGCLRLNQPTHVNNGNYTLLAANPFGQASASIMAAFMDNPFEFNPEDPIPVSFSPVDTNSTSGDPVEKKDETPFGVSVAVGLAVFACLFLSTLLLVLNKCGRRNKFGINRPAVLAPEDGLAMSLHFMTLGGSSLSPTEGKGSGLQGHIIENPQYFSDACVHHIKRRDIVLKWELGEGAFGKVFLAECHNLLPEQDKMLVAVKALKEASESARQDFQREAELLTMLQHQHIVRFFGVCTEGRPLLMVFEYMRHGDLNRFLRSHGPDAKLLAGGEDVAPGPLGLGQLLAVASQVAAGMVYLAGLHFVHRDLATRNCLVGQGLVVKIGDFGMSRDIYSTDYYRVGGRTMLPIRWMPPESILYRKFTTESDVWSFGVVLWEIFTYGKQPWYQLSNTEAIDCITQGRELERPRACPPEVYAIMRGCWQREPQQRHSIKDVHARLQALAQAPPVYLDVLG
Src, sequence (P12931 whole entry): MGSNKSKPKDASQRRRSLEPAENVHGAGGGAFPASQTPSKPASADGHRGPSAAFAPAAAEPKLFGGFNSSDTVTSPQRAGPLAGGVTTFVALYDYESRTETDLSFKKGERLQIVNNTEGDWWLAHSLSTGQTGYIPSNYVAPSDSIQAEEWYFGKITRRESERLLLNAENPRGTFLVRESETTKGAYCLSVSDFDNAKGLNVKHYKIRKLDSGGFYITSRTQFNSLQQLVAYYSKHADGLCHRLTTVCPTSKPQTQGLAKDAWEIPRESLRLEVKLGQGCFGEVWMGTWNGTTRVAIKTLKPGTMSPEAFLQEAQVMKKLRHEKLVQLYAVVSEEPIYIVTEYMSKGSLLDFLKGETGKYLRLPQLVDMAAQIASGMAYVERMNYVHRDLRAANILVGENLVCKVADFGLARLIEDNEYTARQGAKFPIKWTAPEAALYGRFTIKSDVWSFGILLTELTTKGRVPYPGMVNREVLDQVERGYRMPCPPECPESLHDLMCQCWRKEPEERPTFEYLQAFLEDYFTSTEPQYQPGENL
C-Raf, sequence (P04049 whole entry): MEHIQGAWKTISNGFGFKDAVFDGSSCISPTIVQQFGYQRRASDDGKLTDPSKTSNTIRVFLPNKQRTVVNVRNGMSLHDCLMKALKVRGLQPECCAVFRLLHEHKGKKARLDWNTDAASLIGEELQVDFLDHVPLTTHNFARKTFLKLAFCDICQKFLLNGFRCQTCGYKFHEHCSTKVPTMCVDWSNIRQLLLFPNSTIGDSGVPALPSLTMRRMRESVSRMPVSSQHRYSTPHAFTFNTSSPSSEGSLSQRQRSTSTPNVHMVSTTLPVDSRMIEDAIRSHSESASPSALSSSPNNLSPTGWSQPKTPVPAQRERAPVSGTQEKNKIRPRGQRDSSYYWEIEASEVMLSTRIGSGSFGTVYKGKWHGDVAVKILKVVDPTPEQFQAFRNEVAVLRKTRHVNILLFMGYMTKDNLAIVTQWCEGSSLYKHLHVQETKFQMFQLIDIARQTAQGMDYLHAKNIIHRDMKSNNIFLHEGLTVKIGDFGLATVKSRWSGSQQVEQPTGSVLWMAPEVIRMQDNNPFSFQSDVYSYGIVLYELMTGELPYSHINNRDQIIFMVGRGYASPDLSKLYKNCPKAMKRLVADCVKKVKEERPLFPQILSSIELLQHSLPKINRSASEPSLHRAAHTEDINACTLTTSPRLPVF

Fc1nc(NCc2cccnc2OC2CCCCC2)ccc1Cc1c[nH]c2ncncc12 [P-0088, (2-Cyclohexyloxy-pyridin-3-ylmethyl)-[6-fluoro-5-(7H-pyrrolo[2,3-d]pyrimidin-5-ylmethyl)-pyridin-2-yl]-amine]
not listed: TrkA | Btk | A-Raf | Flt-3
≤ 10 µM: all other assays above

COc1ncnc2[nH]cc(Cc3ccc(NCc4ccc(C(F)(F)F)nc4)nc3F)c12 [P-0101, [6-Fluoro-5-(4-methoxy-7H-pyrrolo[2,3-d]pyrimidin-5-ylmethyl)-pyridin-2-yl]-(6-trifluoromethyl-pyridin-3-ylmethyl)-amine]
not listed: Src | A-Raf | Flt-3
≤ 10 µM: all other assays above

COc1ncnc2[nH]cc(Cc3ccc(NCc4cnccc4C(F)(F)F)nc3F)c12 [P-0095, [6-Fluoro-5-(4-methoxy-7H-pyrrolo[2,3-d]pyrimidin-5-ylmethyl)-pyridin-2-yl]-(4-trifluoromethyl-pyridin-3-ylmethyl)-amine]
≤ 10 µM: Fms | TrkA | B-Raf V600E | Kit | Src

COc1ccc(CNc2ccc(Cc3c[nH]c4ncnc(OC)c34)cn2)cn1 [P-0013, (6-Methoxy-pyridin-3-ylmethyl)-[5-(4-methoxy-7H-pyrrolo[2,3-d]pyrimidin-5-ylmethyl)-pyridin-2-yl]-amine]
not listed: C-Raf | Src | TrkA | Btk
≤ 10 µM: all other assays above

COc1ncnc2[nH]cc(Cc3cnc(NCc4cncc(F)c4)nc3)c12 [P-0098, (5-Fluoro-pyridin-3-ylmethyl)-[5-(4-methoxy-7H-pyrrolo[2,3-d]pyrimidin-5-ylmethyl)-pyrimidin-2-yl]-amine]
≤ 10 µM: Fms | TrkA | Btk | Kit

COc1ncnc2[nH]cc(Cc3ccc(NCc4ccccc4Cl)nc3)c12 [P-0014, (2-Chloro-benzyl)-[5-(4-methoxy-7H-pyrrolo[2,3-d]pyrimidin-5-ylmethyl)-pyridin-2-yl]-amine]
not listed: C-Raf | B-Raf | TrkA | Btk
≤ 10 µM: all other assays above

Fc1nc(NCc2ccc(C(F)(F)F)nc2)ccc1Cc1c[nH]c2ncncc12 [P-0007, [6-Fluoro-5-(7H-pyrrolo[2,3-d]pyrimidin-5-ylmethyl)-pyridin-2-yl]-(6-trifluoromethyl-pyridin-3-ylmethyl)-amine]
not listed: C-Raf | B-Raf | Src | Btk
≤ 10 µM: all other assays above

COc1ccc(CNc2ccc(Cc3c[nH]c4ncncc34)c(F)n2)cn1 [P-0009, [6-Fluoro-5-(7H-pyrrolo[2,3-d]pyrimidin-5-ylmethyl)-pyridin-2-yl]-(6-methoxy-pyridin-3-ylmethyl)-amine]
not listed: C-Raf | B-Raf | Src | TrkA
≤ 10 µM: all other assays above

COc1ncccc1CNc1ccc(Cc2c[nH]c3ncnc(OC)c23)c(F)n1 [P-0097, [6-Fluoro-5-(4-methoxy-7H-pyrrolo[2,3-d]pyrimidin-5-ylmethyl)-pyridin-2-yl]-(2-methoxy-pyridin-3-ylmethyl)-amine]
≤ 10 µM: Fms | TrkA | Kit | Src

COc1ncc(CNc2ncc(Cc3c[nH]c4ncnc(OC)c34)cn2)cc1F [P-0092, (5-Fluoro-6-methoxy-pyridin-3-ylmethyl)-[5-(4-methoxy-7H-pyrrolo[2,3-d]pyrimidin-5-ylmethyl)-pyrimidin-2-yl]-amine]
≤ 10 µM: C-Raf | Fms | Kit | Src

COc1ncc(F)cc1CNc1ccc(Cc2c[nH]c3ncncc23)c(F)n1 [P-0011, (5-Fluoro-2-methoxy-pyridin-3-ylmethyl)-[6-fluoro-5-(7H-pyrrolo[2,3-d]pyrimidin-5-ylmethyl)-pyridin-2-yl]-amine]
≤ 10 µM: A-Raf | Flt-3 | Fms | TrkA | Kdr | Kit

Fc1nc(NCc2ccccc2Cl)ccc1Cc1c[nH]c2ncncc12 [P-0005, (2-Chloro-benzyl)-[6-fluoro-5-(7H-pyrrolo[2,3-d]pyrimidin-5-ylmethyl)-pyridin-2-yl]-amine]
≤ 10 µM: Flt-3 | Fms | TrkA | Kdr | Kit | Src
